“Also recorded” adds a separate entry of the source.
Columns and labels:
WM cells = experiment: Transwell migration of WM cells, general statement; format: cell-based; settings: 10 nM CXCL12, 2 h, 37 °C; non-specific migration 3,4%; CellTiter-Glo
Experimental: 10 nM CXCL12 was supplemented to the lower chamber. After 2 h incubation at 37 °C, 5% CO2, cells that had migrated to the lower compartment were analyzed using the CellTiter-Glo Luminescent Cell Viability Assay (Promega, Madison, WI, USA) according to the manufacturer’s instructions. Percentage of specific migration was calculated using the following formula: % migration = ((specific migration-unspecific migration)/total cells) × 100. The average of absolute percentage of non-specific migration was very low in some experiments with 3,4% compared to an average of 81% CXCL12 induced migration.

[1] = test system: ERK1 (Tyr204)/ERK2 (Tyr187) phosphorylation, CXCR4 transduced BCWM.1 cells; experiment: ERK phosphorylation by flow cytometry, CXCR4-transduced BCWM.1 cells; format: cell-based; settings: wild-type or mutated CXCR4 or empty vector control; Figure S5B
Experimental: Cells (100,000) were seeded in 100 µL starvation medium (RPMI, 1% FCS) and starved for 2 h. 5 µL compound in PBS was added and cells were further incubated for 15 min. Afterwards, 5 µL CXCL12 (100 ng/mL final concentration on cells) was added for 2 min before the reaction was stopped by adding PFA and shifting to 4 °C. After 15 min, medium was removed by centrifugation and cells permeabilized by adding ice cold MetOH for 15 min. Cells were then washed and the first antibody was added (phospho-p44/42 MAPK (Erk1) (Tyr204)/(Erk2) (Tyr187) (D1H6G) mouse mAb (Cell Signaling, Danvers, Massachusetts, USA, #5726) and phospho-Akt (Ser473) (193H12) rabbit mAb (Cell Signaling, #4058)) for 2 h and stained with adequate secondary antibody afterwards. Cells were analyzed by flow cytometry with FACS Cytoflex (Beckman Coulter, Brea, CA, USA). For time-kinetic experiments, fold-stimulation was determined by MFI (stimulated)/MFI (unstimulated) for each time point. For inhibition experiments, MFI from unstimulated cells was subtracted from each point and signal of stimulated cells without inhibitor normalized to 100%.

CXCR7 = test system: CXCR7; design: method as in PMID 25921529; settings: cited from earlier work
[2] = test system: mitochondrial cytotoxicity; settings: cited from earlier work
[3] = test system: CXCR4 mutant-expressing cells; settings: cited from earlier work

Row | Molecule | CXCL12 induced migration, average (WM cells) | CXCL12 effect on phosphorylation / MAPK signaling [1] | Interaction with CXCR7 (CXCR7) | Mitochondrial cytotoxicity [2] | Abrogation of CXCL12 rescue from ibrutinib-induced apoptosis [3]
1 | CXCL12: chemokine ligand CXCL12 | 81% | increased upon CXCL12 stimulation; also recorded: increases MAPK signaling in cells expressing CXCR4 wildtype constitutively to the same extent as in CXCR4-mutant cells | – | – | –
2 | c1cc(CN2CCCNCCNCCCNCC2)ccc1CN1CCCNCCNCCCNCC1 [AMD3100] | – | – | acts as an allosteric agonist of this receptor | do not exert mitochondrial cytotoxicity, in contrast to AMD3100 | the effect could be abrogated by adding plerixafor
